Key:
cellular outgrowth = assay: Cell outgrowth experiments with PPG photoproduct; format: cell-based; settings: photoproduct formed upon photocleavage of photonutlin
Method: (§1) Cells were plated at equal amounts (1000 cells per well) in a 24-wells plate followed by indicated treatments −/+irradiation (400 nm for 5 min) 24 h later. Cells were cultured under normal cell culture conditions for 6 days to allow colony outgrowth. Plates were fixed using 99.8% ice-cold methanol (Honeywell) for 10 min at RT. After a 1 time wash in H2O, cells were incubated in 0.2% crystal violet (Sigma) in H2O for at least 3 h at RT to stain cellular outgrowth.

[1] = Photochemical behavior (photocleavage) by UV-vis spectroscopy and UPLC-MS in aqueous buffer; format: physicochemical; settings: λ=400 nm light, aqueous buffer pH=7.0
Method: Thin Layer Chromatography (TLC) was performed using commercial Kieselgel 60, F254 silica gel plates with fluorescence-indicator UV254 (Merck, TLC silica gel 60 F254). For detection of components, UV light at λ=254 nm or λ=365 nm was used. Alternatively, oxidative staining using aqueous basic potassium permanganate solution (KMnO4) or aqueous acidic cerium phosphomolybdic acid solution (Seebach's stain) was used. Flash chromatography was performed on silica gel (Silicycle Siliaflash P60, […], 230-400 mesh). Drying of solutions was performed with MgSO4 and volatiles were removed with a rotary evaporator. Nuclear Magnetic Resonance spectra were measured with an Agilent Technologies 400-MR (400/54 Premium Shielded) spectrometer (400 MHz). All spectra were measured at room temperature (22-24° C.). Chemical shifts for ^1H- and ^13C-NMR measurements were determined relative to the residual solvent peaks in ppm (δH 7.26 for CHCl3, 2.50 for DMSO and 2.05 ppm for Acetone, δC 77.16 for CHCl3 and 39.52 for DMSO). The following abbreviations are used to indicate signal multiplicity: s, singlet; d, doublet; t, triplet; q, quartet; m, multiplet; brs, broad signal. All ^13C-NMR spectra are ^1H-broadband decoupled. High-resolution mass spectrometric measurements were performed on a Thermo scientific LTQ Orbitrap XL with ESI ionization. For spectroscopic measurements, solutions in Uvasol® grade solvents were measured in a 10 mm quartz cuvette. UV-Vis absorption spectra were recorded on an Agilent 8453 UV-Visible absorption Spectrophotometer.
(§2) Following the synthesis of PPG-idasanutlin as described in Example 1, its photochemical behavior under physiological conditions was investigated, UV-vis spectroscopy and UPLC-MS measurements were performed in aqueous buffer at pH=7.0. […] Moreover, no significant spontaneous hydrolysis of PPG-idasanutlin for >24 h in buffer at room temperature was observed (data not shown).

[2] = Spontaneous hydrolysis in buffer; format: physicochemical; settings: buffer at room temperature (data not shown)
Method: as §2

[3] = test system: p53 protein level in RPE-1 cells; assay: Immunofluorescent staining of nuclear p53 protein in RPE-1 cells; format: cell-based; settings: for nuclear p53 protein levels: 4 h after addition, regardless of irradiation with 400 nm light
Method: (§3) FIG. 3: Functional p53 induction upon λ=400 nm irradiation in PPG-idasanutlin treated cells, a) RPE-1 cells were treated with indicated compounds (all 10 μM final) and fixed 4 h after 5 min (−/+400 nm) irradiation. Anti-p53 staining indicates p53 protein expression in the nucleus. […] Error bars represent mean +sd, ****P<0.0001 (unpaired t-test), Dots represent individual cells, n>125 cells per condition combined from 2 independent experiments. c) Representative western blot showing p53 protein levels in cells 4 h after addition of DMSO or PPG-idasanutlin and irradiation for indicated time periods. Hsp90 is used as a loading control. d) Selective outgrowth disadvantage in RPE-1 cells 6 days after PPG-idasanutlin treatment +400 nm irradiation for 5 min. e) Representative Western blot showing p53 protein levels in three cell lines (U2OS, RKO, BJhTert) 4 h after indicated treatments. f) Selective outgrowth inhibition in indicated cell lines 6 days after PPG-idasanutlin treatment +400 nm irradiation for 5 min. In all the experiments <1% DMSO was used.
RPE-1 cells were plated on coverslips at equal density and treated with indicated drugs before −/+irradiation (400 nm for 5 min). For immune fluorescent staining, cells were fixed 4 h after irradiation by wash out of the medium, single wash in phosphate-buffered saline (1× PBS) and incubation in 3.7% formaldehyde for 5 min. Next, fixed cells were permeabilized with 0.2% TritonX in 1× PBS for 5 min before blocking in 3% […] (BSA) in 1× PBS supplemented with 0.1% Tween (PBST) for 1 h (all at room temperature (RT)). Cells were incubated overnight at 4° C. with primary antibody in PBST with 3% BSA, washed three times with PBST, and incubated with secondary antibody and DAPI in PBST with 3% BSA for 2 h at RT. After a final three time wash with PBST coverslips were mounted on microscopic analysis slides using ProLong Gold antifade reagent (Thermo Fisher). The following antibodies were used: anti-p53 (sc-126, Santa Cruz, 1/1000), phalloidin (A12380, Molecular Probes, 1/1000) and goat anti-mouse/Alexa. 488 (A11029, Molecular Probes, 1/1000).
Next, the biological activity of PPG-idasanutlin was investigated. Initial studies aimed at confirming a difference in p53 activation upon λ=400 nm light exposure after addition of the protected idasanutlin derivative (PPG-idasanutlin). To that end, non-transformed, p53-proficient retinal pigment epithelial cells (RPE-1) were treated with either DMSO (control), nutlin-3, idasanutlin or PPG-idasanutlin, followed by −/+irradiation with 400 nm light (FIG. 3).

[4] = test system: p53 protein level in RPE-1 cells; assay: p53 protein levels (western blot) in RPE-1 cells, dose-response; format: cell-based; settings: increasing duration of 400 nm irradiation and varying doses, 4 h
Method: as §3, with “used. […]” for “used.”
To examine the level of control over the dose-response of idasanutlin (employing PPG-idasanutlin), p53 protein levels in RPE-1 cells were determined by immunostaining after both increasing duration of 400 nm light irradiation and varying doses of PPG-idasanutlin (FIG. 3.c).

RPE-1 cells = assay: Clonogenic outgrowth of RPE-1 cells; format: cell-based; settings: 6 days
Method: as §3
as §1, with “After a 1 time wash in H2O, cells were incubated in 0.2% crystal violet (Sigma) in H2O for at least 3 h at RT to stain cellular outgrowth.” left out

[5] = test system: p53 in BJ-hTert, RKO (colon carcinoma), U2OS (osteosarcoma) cell lines; assay: p53 protein levels (western blot) in additional cell lines; format: cell-based; settings: U2OS (all cell lines tested), after light irradiation, 4 h
Method: as §3
RPE-1 cells were plated at equal density in 6-well plates followed by indicated treatments −/+irradiation (400 nm for 5 min) 24 h later. Cells were fixed and collected 4 h after treatment by wash out of the medium, single wash in 1× PBS followed by addition of laemmli buffer (4% SDS, 20% glycerol and 0.125 M Tris HCl). […]

[6] = test system: BJ-hTert, RKO (colon carcinoma), U2OS (osteosarcoma) cell lines; assay: Clonogenic outgrowth of additional cell lines; format: cell-based; settings: 6 days after treatment + 400 nm irradiation for 5 min
Method: as §3
as §1, with “After a 1 time wash in H2O, cells were incubated in 0.2% crystal violet (Sigma) in H2O for at least 3 h at RT to stain cellular outgrowth.” left out

RPE-1 p53-venus cells = assay: Live-cell imaging of cell division after single-cell laser irradiation; format: cell-based; settings: RPE-1 p53-venus cells irradiated with 405 nm laser (0.1 s pulse) after treatment
Method: FIG. 5: Spatiotemporal control of PPG-idasanutlin. a) Schematic representation of microwell set-up for laser irradiation of individual RPE-1 cells to activate PPG-idasanutlin. Laser target area (represented. by red circle) for single pulse (0.1 sec irradiation at 5 um interspaced position) indicated with scale. Individual irradiated cells followed by measuring nuclear p53-venus levels (fluorescence) every 15 min for 3 h after laser irradiation. Approximately 200 cells in each microwell. b) Percentage of cells that divide within 8 h after indicated treatments. Mean±sem of three independent experiments. Error bars indicate 95% confidence intervals. c, d) p53-venus fluorescent signal in individual RPE-1 cells tracked over time after indicated treatments as represented in (a). Line-graphs represent mean of individual cells. n>42 cells per condition pooled from three independent experiments. ***p<0.005, ****p<0.0001 significance in 2-way anova interaction score. […]
(§4) Using RPE-1 cells that stably expressed a venus-tagged version of p53 (p53-venus), p53 protein accumulation could be tracked with high time-resolution in individual cells by live-cell microscopy. […] To determine the functionality of the high spatiotemporal control obtained in this set-up, cell cycle progression was monitored in single cells following laser activation of PPG-idasanutlin (photorelease of idasanutlin).

p53-venus in RPE-1 cells = assay: Live-cell imaging of nuclear p53-venus signal after single-cell laser irradiation; format: cell-based
Method: FIG. 5: Spatiotemporal control of PPG-idasanutlin. a) Schematic representation of microwell set-up for laser irradiation of individual RPE-1 cells to activate PPG-idasanutlin. Laser target area (represented. by red circle) for single pulse (0.1 sec irradiation at 5 um interspaced position) indicated with scale. Individual irradiated cells followed by measuring nuclear p53-venus levels (fluorescence) every 15 min for 3 h after laser irradiation. Approximately 200 cells in each microwell. b) Percentage of cells that divide within 8 h after indicated treatments. Mean±sem of three independent experiments. Error bars indicate 95% confidence intervals. c, d) p53-venus fluorescent signal in individual RPE-1 cells tracked over time after indicated treatments as represented in (a). Line-graphs represent mean of individual cells. n>42 cells per condition pooled from three independent experiments. ***p<0.005, ****p<0.0001 significance in 2-way anova interaction score.
For live cell imaging, cells were grown in picovitro microwells covered by a silicon membrane^4 in Leibovitz's L-15 (Gibco) CO2-independent medium supplemented with ultraglutamine, penicillin/streptomycin and 10% fetal calf serum. Images for both fixed slides and live cell imaging were obtained using a Delta Vision Elite (applied precision) equipped with a 60× 1.6 NA or 10× 0.75 NA lens (Olympus) and cooled CoolSnap CCD camera. Directed laser irradiation was performed using a brief (0.1 s) pulse of a 405 nm laser on the Delta Vision Elite microscope equipped with a X4 laser module (Applied Precision). Image analysis was done using ImageJ software. […]
as §4, with “idasanutlin). […]” for “idasanutlin).”

SMILES: CCN(CC)c1ccc2c(C(C)O)cc(=O)oc2c1 (stereo not drawn) [PPG 6, 7-(diethylamino)-4-(1-hydroxyethyl)-2H-chromen-2-one]
- cellular outgrowth (cellular outgrowth): does not perturb

SMILES: CCN(CC)c1ccc2c(C(C)OC(=O)c3ccc(NC(=O)[C@@H]4N[C@@H](CC(C)(C)C)[C@](C#N)(c5ccc(Cl)cc5F)[C@H]4c4cccc(Cl)c4F)c(OC)c3)cc(=O)oc2c1 (stereo partly drawn) [PPG-idasanutlin, 1-(7-(diethylamino)-2-oxo-2H-chromen-4-yl)ethyl 4-((2R,3S,4R,5S)-3-(3-chloro-2-fluorophenyl)-4-(4-chloro-2-fluorophenyl)-4-cyano-5-neopentylpyrrolidine-2-carboxamido)-3-methoxybenzoate]
- irradiation time for major photorelease of idasanutlin [1]: ≤ 5 min
- products observed upon photodeprotection [1]: solely the formation of idasanutlin and hydroxycoumarin
- quantum yield of photocleavage [1]: 0.1%
- time without significant spontaneous hydrolysis [2]: > 24 h
- p53 protein level ([3]; 10 μM, irradiated with 400 nm light (5 min), fixed 4 h after): significant increase
- p53 stabilization ([3]; without 400 nm irradiation): no functional effect
- accumulation of p53 protein [4]: clear dose-response dependent accumulation
- colony outgrowth (RPE-1 cells; after irradiation with 400 nm for 5 min): selectively blocked
- colony outgrowth (growth inhibition) (RPE-1 cells; without 400 nm irradiation): did not show any growth inhibition
- stabilization of p53 [5]: Selective stabilization
- cellular outgrowth [6]: dramatic reduction
- percentage of cells that divide within 8 h (RPE-1 p53-venus cells): strongly drops
- nuclear p53-venus signal (p53-venus in RPE-1 cells; neighbouring cells not irradiated by the 405 nm laser): significantly lesser extent
- nuclear p53-venus signal (p53-venus in RPE-1 cells; non-irradiated cells from adjacent wells at micrometer distance): completely absent
- nuclear p53-venus signal (p53-venus in RPE-1 cells; single cells irradiated with 405 nm laser, 15 min intervals): selective stabilization

SMILES: COc1ccc(C2=N[C@@H](c3ccc(Cl)cc3)[C@@H](c3ccc(Cl)cc3)N2C(=O)N2CCNC(=O)C2)c(OC(C)C)c1 [nutlin-3, reference compound]
- nuclear p53 protein levels ([3]; 10 μM): significant increase

SMILES: COc1cc(C(=O)O)ccc1NC(=O)[C@@H]1N[C@@H](CC(C)(C)C)[C@](C#N)(c2ccc(Cl)cc2F)[C@H]1c1cccc(Cl)c1F [idasanutlin, 4-((2R,3S,4R,5S)-3-(3-chloro-2-fluorophenyl)-4-(4-chloro-2-fluorophenyl)-4-cyano-5-neopentylpyrrolidine-2-carboxamido)-3-methoxybenzoic acid, reference compound]
- nuclear p53 protein levels ([3]; 10 μM): significant increase

From patent publication US11981664B2, “Photoresponsive nutlin derivatives and uses thereof” (Rijksuniversiteit Groningen, priority 2018, dated 2024)
